Test results: patent US8426369B2, “Prevention and treatment of colon cancer” (Rutgers, The State University of New Jersey, priority 2006, dated 2013)

Legend:
HT-29 cells = test: [3H]Thymidine incorporation cell proliferation assay in HT-29 cells; type: cell-based, human; conditions: 30 μM, three days
Procedure: The stilbenes illustrated in FIG. 4 were also used to investigate their ability to inhibit cell proliferation in HT-29 cell line. In this experiment, HT-29 cells (20,000 cells/well in 24-well plate) were treated with the respective stilbenes (each used either at 30 μM or 3 μM) in 10% FBS/DMEM for three days.
(§1) Human colon carcinoma cell lines HT-29 was obtained from the American Type Culture Collection (Manassas, Va.). The cells were maintained in Dulbecco's modification of Eagle's medium (DMEM) supplemented with 10% FBS and 1% penicillin/streptomycin at 37° C. and 5% CO2. The cytokine mixture, consisting of 10 ng/ml of TNF-α, IFN-γ and LPS, was used to induce iNOS and COX-2, unless otherwise mentioned. The cells were treated with the test compound either alone or in combination with cytokines for different time intervals and harvested for protein or RNA.
HT-29 cells were plated at a density of 20,000 cells/well in a 24 well plate and treated with varying concentrations of pterostilbene for a period of 1, 2 or 3 days at 37° C. Before harvest, the cells were incubated with 1 μCi [^3H]thymidine for 4 h at 37° C. and were washed with phosphate buffered saline. The cells were precipitated with cold 10% trichloroacetic acid for 10 min and solubilized with 0.5 ml solubilization buffer (0.2 M NaOH, 40 μg/ml salmon sperm DNA) for 2 h at room temperature. The lysate was transferred to 5 ml Ecolume and the [3H]thymidine incorporated into the DNA of HT-29 cells was determined using a scintillation spectrometer (Beckman Coulter, Fullerton, Calif.).

AOM-induced colonic ACF = conditions: F344 rats; L-N6-(1-iminoethyl)lysine tetrazoleamide at 100 ppm; cited from earlier work
[1] = test system: AOM-induced rat colon carcinogenesis; conditions: 100 ppm; cited from earlier work
iNOS = test: Cytokine-induced iNOS protein expression in HT-29 cells (Western blot); type: cell-based, human; conditions: stilbene analogs each at 10 μM, 15 hours, HT-29, Western blot
Procedure: HT-29 human colon adenocarcinoma cells were grown in 10% FBC/DMEM. Cells (about 600,000 cells/well) were plated in 6-well plate and treated with stilbene analogs shown in FIG. 4 (each at 10 μM) for 15 hours together with cytokine mixture comprising TNF-a, IFN0g, and LPS (each at 10 ng/ml). Cell lysates were prepared and subjected to Western Blot analysis.
as §1
The cell culture conditions and the reagents used in this example were described in Example 32. Whole cell extracts were collected after the various treatments and analyzed by western blotting. The protein samples were separated on 4-15% SDS-PAGE gels (Biorad, Hercules, Calif.) followed by transfer to a polyvinylidene fluoride membrane. The membranes were blocked with 5% milk in Tris buffer for 1 h and then incubated with the appropriate primary antibody solutions overnight at 4° C. The membranes were washed with Tris buffer, and incubated with horseradish peroxidase conjugated secondary antibody solutions for 1 h at room temperature.
The protein bands were visualized using a chemiluminescence based kit from Amersham Biosciences (Buckinghamshire, UK). The primary antibodies against iNOS, COX-2, IκBα, cyclin D1, c-myc (Santa Cruz Bio-technology, Santa Cruz, Calif.), phospho-STAT3, phospho-Erk1/2, phospho-JNK1/2, phospho-p38, phospho-Akt, phospho-ATF2, phospho-Elk1, PARP (Cell Signaling Technology Inc., Beverly, Mass.) and actin (Sigma, St. Louis, Mo.) and secondary antibodies (Santa Cruz Biotechnology, Santa Cruz, Calif.) were used for probing the abundance of the target protein in the samples.

[2] = test system: colorectal aberrant crypt foci (ACF); conditions: rats; cited from earlier work

Compound | proliferation of HT-29 cells (HT-29 cells) | AOM-induced colonic ACF (AOM-induced colonic ACF) | further results
COc1ccc(/C=C/c2cc(OC)cc(OC)c2)cc1 [ARS-8, (E)-1,3-dimethoxy-5-(4-methoxystyryl)benzene] | inhibited proliferation | – | –
L-N^6-(1-iminoethyl)lysine tetrazoleamide | – | significantly suppress | –
C[C@H]1CC(=N)N[C@@H]2[C@H](Cl)[C@@H]21.Cl [ONO-1714, [1S,5S,6R,7R]-7-chloro-3-imino-5-methyl-2 azabicyclo[4.1.0]heptane hydrochloride] | – | – | AOM-induced rat colon carcinogenesis [1]: inhibitory effect
COc1ccc(/C=C\c2cc(OC)cc(OC)c2)cc1 [ARS-9, (Z)-1,3-dimethoxy-5-(4-methoxystyryl)benzene] | inhibited proliferation | – | induction of iNOS protein expression by cytokine mixture (iNOS): inhibited
Oc1ccc(C=Cc2cc(O)cc(O)c2)cc1 [Resveratrol] | – | – | growth of colorectal aberrant crypt foci (ACF) [2]: reduce the growth
N=C(N)SCCc1ccc(CCSC(=N)N)cc1 [PBIT, S,S′-1,4-phenylene-bis(1,2-ethanediyl)bis-isothiourea] | – | inhibitory effects | –
